Test system: human red blood cells
Assay: Hemolytic activity on heparinized whole blood
Assay type: cell-based
Settings: 0- to 14-day incubation, all dilutions examined
Description: The hemolytic activity of A. paucinervis pomel extract on blood cells was examined, and compared with the ability of Triton-X to lyse these cells.
To perform these studies, heparinized-whole blood was incubated with dilutions of Triton-X-100 (0-1%) or 5× (4.4 mg/ml) A. paucinervis pomel extract for 40 minutes at room temperature. Plasma was collected after centrifugation at 1200×g for 5 minutes and diluted 1/20 with DPBS. The absorbance at 560 nm of 100 μl of each diluted plasma sample was measured. In a second experiment, the effects of incubating whole blood with dilutions of 5× (4.4 mg/ml) A. paucinervis pomel extract for 0, 3, 7 and 14 days was assessed. Experimental results are shown in FIG. 5A (cells treated with A. paucinervis pomel extract) and FIG. 5B (cells treated with Triton-X-100).

Substance: Triton-X
- hemolytic activity on blood cells: toxic to blood cells

Reference: patent publication US8003137B2, “Extracts of Aristolochia paucinervis pomel and uses thereof” (FasTrack Pharmaceuticals, Inc., priority 2008, dated 2011)
